The values below come from patent US10494360B2, “Inhibitors of indoleamine 2,3-dioxygenase” (NETHERLANDS TRANSLATIONAL RESEARCH CENTER B.V., priority 2016, dated 2019).

Assay [1] has as its target T1, IDO1 (Homo sapiens, UniProt P14902). The assay is described as follows: Biochemical IDO1 assay (NFK GreenScreen). Conditions: recombinant full-length IDO1 25 nM, L-tryptophan 100 μM, NFK Green detection; read-out: IC50, inhibitory potency on IDO1. The arrangement: Recombinant full-length IDO1 (Seegers, N., et al.) and all other assay components were diluted in IDO1 reaction buffer; made in house. The gist of the method:
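Recombinant full-length IDO1 in 50 mM NaH2PO4 pH 7.0 with 0.05% Tween-20 and 1% glycerol converted 100 μM L-tryptophan (final) over 60 min at room temperature with compound, 0.3% DMSO.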

The target of assay [2] is T1, IDO1. The assay is described as follows: Cell-based assay for IDO1 in interferon-γ stimulated A-375 melanoma cells. The conditions noted are these: interferon-γ stimulation, 48 hours, read-out: IC50, cell-based IDO1 (NFK levels). As for the experimental part: The biological activity of IDO1 inhibitors can be measured by applying above detection methods to cells that are treated with test compound. The expression of IDO1 can be induced in many different cell lines by stimulation with IFNγ (Takikawa, O., et al., J. Biol. Chem. 263: 2041; 1988; Seegers, et al.), or IDO1 can be expressed in cells that lack endogenous IDO1 by transfection of an expression vector containing IDO1 cDNA.
A-375 melanoma cells were purchased from LGC Standards GmbH (Wesel, Germany) and cultured in DMEM tissue culture medium (Life Technologies, Bleiswijk, The Netherlands), supplemented with 10% (v/v) bovine calf serum. Compounds were dissolved in DMSO and diluted in DMEM. Final DMSO concentration in the assay was 0.4% (v/v). Eight thousand cells per well in 35 μl were seeded in a black 384-well tissue plate (cat. No. 781086; Greiner Bio-One GmbH, Frickenhausen, Germany) and allowed to adhere by incubation at 37° C., 95% humidity, and 5% CO2 overnight. Then, 5 μl of compound solution was added to the cells 1 hour prior to stimulation with 5 μl of 500 ng/ml interferon-γ (R&D Systems, Minneapolis, Minn., USA) diluted in DMEM medium. At the same time, 5 μl of L-tryptophan in 20 mM Hepes buffer pH 7.4 was added. Incubation was continued for 48 hours. To determine NFK levels, 12 μl NFK Green™ (NTRC, Oss, The Netherlands) was added to each well, and the plate was sealed and incubated for 4 hours at 37° C. Fluorescence was measured on an EnVision multimode reader (Perkin Elmer, Waltham, Mass., USA). IC50 were calculated using XLfit™ software (ID Business Solutions, Ltd., Surrey, U.K.).

“And” between values parts separate entries of the source, which are not always exact repeats. Identical values can stand only once.

T1 sequence (P14902 whole entry, species assumed): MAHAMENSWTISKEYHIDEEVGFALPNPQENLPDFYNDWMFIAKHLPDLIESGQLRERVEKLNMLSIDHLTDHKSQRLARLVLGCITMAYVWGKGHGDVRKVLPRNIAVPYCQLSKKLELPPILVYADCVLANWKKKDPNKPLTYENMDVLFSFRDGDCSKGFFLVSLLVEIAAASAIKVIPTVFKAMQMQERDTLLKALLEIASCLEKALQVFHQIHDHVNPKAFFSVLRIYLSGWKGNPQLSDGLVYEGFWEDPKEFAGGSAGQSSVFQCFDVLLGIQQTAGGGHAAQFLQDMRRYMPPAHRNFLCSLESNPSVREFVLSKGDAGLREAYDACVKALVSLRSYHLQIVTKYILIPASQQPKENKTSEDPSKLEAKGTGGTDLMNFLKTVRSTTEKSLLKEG

A word on the IC50: it is the concentration needed to halve the response being measured. Take `O=C1CN(C(=O)c2ccccc2Cl)C(c2cccc(C(F)(F)F)c2)N1O` (stereo not shown) [Example 2, 1-(2-Chlorobenzoyl)-3-hydroxy-2-[3-(trifluoromethyl)phenyl]imidazolidin-4-one]: the IC50 is ≤ 5 µM and 1 to 5 µM at IDO1 [1]; < 5 µM at IDO1 [2].

Turning to `O=C1CN(C(=O)c2ccccc2Cl)C(c2cccc(Br)c2)N1O` (stereo not shown) [Example 34, 2-(3-Bromophenyl)-1-(2-chlorobenzoyl)-3-hydroxy-imidazolidin-4-one], the IC50 was ≤ 1 µM at IDO1 [1] and < 5 µM on IDO1 [2].

Take `O=C1CN(C(=O)c2c(F)cccc2Cl)C(c2cccc(C(F)(F)F)c2)N1O` (stereo not shown) [Example 3, 1-(2-Chloro-6-fluoro-benzoyl)-3-hydroxy-2-[3-(trifluoromethyl)phenyl]imidazolidin-4-one]: the values for the IC50 at IDO1 [1] and at IDO1 [2] were ≤ 1 µM and < 5 µM, respectively.

In the case of `O=C1CN(C(=O)c2cccc(F)c2)C(c2ccc(F)c(Br)c2)N1O` (stereo not shown) [Example 43, 2-(3-Bromo-4-fluoro-phenyl)-1-(3-fluorobenzoyl)-3-hydroxy-imidazolidin-4-one], the IC50 was ≤ 5 µM and 1 to 5 µM at IDO1 [1]; < 5 µM on IDO1 [2].

As for `O=C1CN(C(=O)c2c(F)cccc2F)C(c2cccc(C(F)(F)F)c2)N1O` (stereo not shown) [Example 4, 1-(2,6-Difluorobenzoyl)-3-hydroxy-2-[3-(trifluoromethyl)phenyl]imidazolidin-4-one], the figures for the IC50 at IDO1 [1] and at IDO1 [2] were ≤ 1 µM and < 5 µM, respectively.

Take `CC(C)C#Cc1cc(F)c(C(=O)N2CC(=O)N(O)C2c2cccc(Br)c2)c(F)c1` (stereo not shown) [Example 107, 2-(3-Bromophenyl)-1-[2,6-difluoro-4-(3-methylbut-1-ynyl)benzoyl]-3-hydroxy-imidazolidin-4-one]: the IC50 is ≤ 1 µM at IDO1 [1] and < 5 µM at IDO1 [2].

On to `O=C1CN(C(=O)c2cccnc2F)C(c2cccc(Br)c2)N1O` (stereo not shown) [Example 87, 2-(3-Bromophenyl)-1-(2-fluoropyridine-3-carbonyl)-3-hydroxy-imidazolidin-4-one], for which the IC50 on IDO1 [1] is ≤ 1 µM; on IDO1 [2], < 5 µM.

With `O=C1CN(C(=O)c2c(F)cc(Br)cc2F)C(c2cccc(Br)c2)N1O` (stereo not shown) [Example 85, 1-(4-Bromo-2,6-difluoro-benzoyl)-2-(3-bromophenyl)-3-hydroxy-imidazolidin-4-one], the IC50 was ≤ 1 µM at IDO1 [1] and < 5 µM at IDO1 [2].

For the molecule `O=C1CN(C(=O)c2c(F)cccc2F)C(c2cccc(I)c2)N1O` (stereo not shown) [Example 71, 1-(2,6-Difluorobenzoyl)-3-hydroxy-2-(3-iodophenyl)imidazolidin-4-one], the figures for the IC50 on IDO1 [1] and on IDO1 [2] were ≤ 1 µM and < 5 µM, respectively.

For the molecule `Cn1cc(-c2cc(F)c(C(=O)N3CC(=O)N(O)C3c3cccc(Br)c3)c(F)c2)cn1` (stereo not shown) [Example 119, 2-(3-Bromophenyl)-1-[2,6-difluoro-4-(1-methylpyrazol-4-yl)benzoyl]-3-hydroxy-imidazolidin-4-one], the IC50 at IDO1 [1] was ≤ 1 µM; on IDO1 [2], < 5 µM.

In the case of `O=C1CN(C(=O)c2c(F)cccc2F)C(c2ccc(F)c(Cl)c2)N1O` (stereo not shown) [Example 52, 2-(3-Chloro-4-fluoro-phenyl)-1-(2,6-difluorobenzoyl)-3-hydroxy-imidazolidin-4-one], the values for the IC50 on IDO1 [1] and on IDO1 [2] were ≤ 1 µM and < 5 µM, respectively.

In the case of `O=C1CN(C(=O)c2cccc(Cl)c2Cl)C(c2cccc(Br)c2)N1O` (stereo not shown) [Example 35, 2-(3-Bromophenyl)-1-(2,3-dichlorobenzoyl)-3-hydroxy-imidazolidin-4-one], the IC50 at IDO1 [1] is ≤ 1 µM; at IDO1 [2], < 5 µM.

On to `O=C1CN(C(=O)c2ccccc2F)C(c2cccc(Cl)c2)N1O` (stereo not shown) [Example 13, 2-(3-Chlorophenyl)-1-(2-fluorobenzoyl)-3-hydroxy-imidazolidin-4-one], for which the IC50 at IDO1 [1] is ≤ 1 µM; at IDO1 [2], < 5 µM.

Turning to `O=C1CN(C(=O)c2ccc(F)cc2F)C(c2cccc(Cl)c2)N1O` (stereo not shown) [Example 59, 2-(3-Chlorophenyl)-1-(2,4-difluorobenzoyl)-3-hydroxy-imidazolidin-4-one], the results for the IC50 at IDO1 [1] and on IDO1 [2] were ≤ 1 µM and < 5 µM, respectively.

For `O=C1CN(C(=O)c2c(F)cccc2F)C(c2cccc([N+](=O)[O-])c2)N1O` (stereo not shown) [Example 67, 1-(2,6-Difluorobenzoyl)-3-hydroxy-2-(3-nitrophenyl)imidazolidin-4-one], the IC50 is ≤ 1 µM at IDO1 [1] and < 5 µM at IDO1 [2].

As for `O=C1CN(C(=O)c2ccccc2F)C(c2cccc(Br)c2)N1O` (stereo not shown) [Example 33, 2-(3-Bromophenyl)-1-(2-fluorobenzoyl)-3-hydroxy-imidazolidin-4-one], the IC50 on IDO1 [1] was ≤ 1 µM; on IDO1 [2], < 5 µM.

With `O=C1CN(C(=O)c2c(F)cccc2F)C(c2cccc(C3CC3)c2)N1O` (stereo not shown) [Example 99, 2-(3-Cyclopropylphenyl)-1-(2,6-difluorobenzoyl)-3-hydroxy-imidazolidin-4-one], the IC50 was ≤ 5 µM and 1 to 5 µM at IDO1 [1]; < 5 µM on IDO1 [2].

Consider `O=C1CN(C(=O)c2c(F)cc(C#CC3CC3)cc2F)C(c2cccc(Br)c2)N1O` (stereo not shown) [Example 106, 2-(3-Bromophenyl)-1-[4-(2-cyclopropylethynyl)-2,6-difluoro-benzoyl]-3-hydroxy-imidazolidin-4-one], for which the IC50 on IDO1 [1] is ≤ 1 µM; on IDO1 [2] it was < 5 µM.

For `C#Cc1cccc(C2N(O)C(=O)CN2C(=O)c2c(F)cccc2F)c1` (stereo not shown) [Example 98, 1-(2,6-Difluorobenzoyl)-2-(3-ethynylphenyl)-3-hydroxy-imidazolidin-4-one], the IC50 was ≤ 1 µM on IDO1 [1] and < 5 µM on IDO1 [2].

For the molecule `O=C1CN(C(=O)c2c(F)cccc2F)C(c2ccc(F)c(Br)c2)N1O` (stereo not shown) [Example 44, 2-(3-Bromo-4-fluoro-phenyl)-1-(2,6-difluorobenzoyl)-3-hydroxy-imidazolidin-4-one], the IC50 on IDO1 [1] was ≤ 1 µM; on IDO1 [2], < 5 µM.

With `O=C1CN(C(=O)c2c(F)cccc2Cl)C(c2ccc(F)c(Br)c2)N1O` (stereo not shown) [Example 45, 2-(3-Bromo-4-fluoro-phenyl)-1-(2-chloro-6-fluoro-benzoyl)-3-hydroxy-imidazolidin-4-one], the IC50 was ≤ 1 µM on IDO1 [1] and < 5 µM on IDO1 [2].

Take `N#Cc1cc(F)c(C(=O)N2CC(=O)N(O)C2c2cccc(Br)c2)c(Cl)c1` (stereo not shown) [Example 25, 4-[2-(3-Bromophenyl)-3-hydroxy-4-oxo-imidazolidine-1-carbonyl]-3-chloro-5-fluoro-benzonitrile]: the IC50 on IDO1 [1] is ≤ 5 µM and 1 to 5 µM; on IDO1 [2], < 5 µM.

On to `O=C1CN(Cc2ccccc2F)C(c2cccc(I)c2)N1O` (stereo not shown) [Example 124, 1-[(2-Fluorophenyl)methyl]-3-hydroxy-2-(3-iodophenyl)imidazolidin-4-one], for which the IC50 on IDO1 [1] is ≤ 1 µM; at IDO1 [2], < 5 µM.

Regarding `O=C1CN(C(=O)c2c(F)cc(F)cc2F)C(c2cccc(Br)c2)N1O` (stereo not shown) [Example 82, 2-(3-Bromophenyl)-3-hydroxy-1-(2,4,6-trifluorobenzoyl)imidazolidin-4-one], the IC50 at IDO1 [1] was ≤ 1 µM; at IDO1 [2], < 5 µM.

For the molecule `O=C1CN(C(=O)c2cc(F)ccc2F)C(c2cccc(Br)c2)N1O` (stereo not shown) [Example 26, 2-(3-Bromophenyl)-1-(2,5-difluorobenzoyl)-3-hydroxy-imidazolidin-4-one], the results for the IC50 on IDO1 [1] and on IDO1 [2] were ≤ 1 µM and < 5 µM, respectively.

Take `O=C1CN(C(=O)c2c(F)cccc2Cl)C(c2cccc(Br)c2)N1O` (stereo not shown) [Example 32, 2-(3-Bromophenyl)-1-(2-chloro-6-fluoro-benzoyl)-3-hydroxy-imidazolidin-4-one]: the IC50 was ≤ 1 µM at IDO1 [1] and < 5 µM on IDO1 [2].

Take `O=C1CN(C(=O)c2c(F)cccc2Cl)C(c2ccc(Cl)c(C(F)(F)F)c2)N1O` (stereo not shown) [Example 7, 1-(2-Chloro-6-fluoro-benzoyl)-2-[4-chloro-3-(trifluoromethyl)phenyl]-3-hydroxy-imidazolidin-4-one]: the IC50 at IDO1 [1] is ≤ 5 µM and 1 to 5 µM; on IDO1 [2], < 5 µM.

For the molecule `O=C1CN(C(=O)c2c(F)cc(-c3cccs3)cc2F)C(c2cccc(Br)c2)N1O` (stereo not shown) [Example 120, 2-(3-Bromophenyl)-1-[2,6-difluoro-4-(2-thienyl)benzoyl]-3-hydroxy-imidazolidin-4-one], the IC50 at IDO1 [1] was ≤ 1 µM; at IDO1 [2], < 5 µM.

For the molecule `O=C1CN(C(=O)c2c(F)cccc2Cl)C(c2ccc(F)c(Cl)c2)N1O` (stereo not shown) [Example 53, 1-(2-Chloro-6-fluoro-benzoyl)-2-(3-chloro-4-fluoro-phenyl)-3-hydroxy-imidazolidin-4-one], the IC50 on IDO1 [1] is ≤ 1 µM; at IDO1 [2] it was < 5 µM.
